These results are taken from paper PMC5876303, “Discovery of C-3 Tethered 2-oxo-benzo[1,4]oxazines as Potent Antioxidants: Bio-Inspired Based Design, Synthesis, Biological Evaluation, Cytotoxic, and in Silico Molecular Docking Studies” (Frontiers in Chemistry, 2018).

In brackets after ≈: the same amount, converted by molar mass. Where two headings read alike, the source gives them in different places.

For data set [1] the following is noted: Figure 1, cited from earlier work.
Data set [2] in a line: Ferric reducing antioxidant power (FRAP) assay. In kind it is biochemical. The following applies: for FRAP assay (C0.5FRAP): mean ± SD, n = 3, concentration equivalent to FeSO4 at 0.5 mmol/L, 37°C, 30 min, 593 nm; for FRAP potency compared with standard reference BHT: in words, BHT C0.5FRAP = 546.0 ± 13.6 μM. How it is done: The FRAP reagent was prepared by the addition of freshly prepared 20.0 mM FeCl3.6H2O solution, 10.0 mM of […] (TPTZ) solution and 300 mM sodium acetate buffer (pH 3.6) in a ratio of 1:1:10 (v/v/v). After that, Sample (our synthesized 2-oxo-2-phenylethylidenes-linked 2-oxo-benzo[1,4]oxazines 20a-ab) was added to 3 ml of freshly prepared FRAP reagent and this reaction mixture was incubated at 37°C temperature for 30 min. and the absorbance was measured at 593 nm. It is also noted that, a freshly prepared solution of FeSO4 was used for calibration of standard curve. The FRAP antioxidant capability were evaluated in terms of C0.5FRAP (the antioxidant capability of samples related to their concentration, which is equivalent to that of FeSO4 at 0.5 mmol/L) (Benzie and Strain, [1996]).
The FRAP assay was deliberated using the method as illustrated by Benzie and Strain (Benzie and Strain, [1996]). […] The reducing nature of an antioxidant depends on their property to donate a hydrogen atom for the breaking of the free radical chain, which is responsible for oxidative stress etc.

Data set [3] concerns 3T3 fibroblast cell lines. Description: in vitro. The following applies: mouse, 72 h, 250 μg/ml. In kind it is cell-based. How it is done:
(§1) Cell toxicity of active C-3 tethered 2-oxo-benzo[1,4]oxazine analogs were accessed using 3T3 fibroblast cell lines in MTT assay via the reported protocol of Danihelová et al. ([2013]) [For details, see supporting information].
(§2) The cytotoxic effect of the active compounds prepared on cells was detected in vitro using the mitochondrial cytotoxic test according to Danihelová et al. (2013) with modifications. Cell viability was evaluated using thiazolyl blue tetrazolium bromide (MTT), which indicates the metabolic activity of cells. The experiment was performed in 96-well microplates. The cells were seeded at a density of 3.5×10^3 3T3 fibroblast cells per well. Samples were dissolved in DMSO (stock solution 10 […]
(§3) (concentration of DMSO 0.5%) and after 24 h they were added to the cells. Microplates were cultivated for 72 h in thermostat at 37 °C and 5% CO 2 atmosphere. After incubation thiazolyl blue tetrazolium bromide (3.33 mg/ml phosphate buffered saline, pH=7.4) was pipetted to each well and left to incubate for further two hours. Then the medium with MTT solution was removed. Formazan crystals in viable cells were dissolved in the lysis solution (4 mM HCl and 0.1% Nonidet P40 in ethanol). Microplates were shaken 15 min at 1500 rpm. Absorbance was measured at 540 nm and reference wavelength at 740 nm. Each value is the mean of 6 wells with standard deviation.
(§4) Inhibition activity was expressed as percentages of control with DMSO.

The next data set in a line: in vitro. In kind it is cell-based. The following applies: mouse, Cell viability (%). How it is done: as §1, §2, §3, §4
The nature of data set [4]: DPPH radical scavenging antioxidant assay. The note with it: Table 1; mean ± SD, n = 3; 517 nm after 20 min. In kind it is biochemical. How it is done: In DPPH radical scavenging method the plant extract (0.75 mL) at different concentrations ranging from 10 to 100 μg mL^−1 was mixed with 1.5 mL of a DPPH methanolic solution (20 mg L^−1). Pure methanol was taken as control and ascorbic acid (vitamin C), vitamins A and E were used as a reference compounds. The absorbance was measured at 517 nm after 20 min of reaction. The % of DPPH decolouration of the sample was calculated according to the formula (Sharma and Bhat, [2009]).
Decolouration % = [1−(Abs SAMPLE/Abs CONTROL)]×100
The decolouration was plotted against the sample extract concentration and a logarithmic regression curve was established in order to calculate the IC50. The results are expressed as antiradical efficiency (AE), which is 1000-fold inverse of the IC50 value AE=1000/ IC50.

Where [5] appears, read: ref Niemeyer, 2009, Adhikari et al., 2013, Glenska et al., 2015.

With `COc1ccc2c(c1)OC(O)C(=O)N2O` (stereo not shown) [Compound 1, DIMBOA], in data set [1] (setting [5]), the “% DPPH-scavenging activity” value is 98.57% and the “IC50 (antioxidant activity)” value is 11.31 µg/mL (≈ 53.6 µM).
Turning to `O=c1[nH]c2ccccc2c(=O)o1` [Compound 4, 2H-benzo[d][1,3]oxazine-2,4(1H)-dione], in data set [1] (ref Sáncheza et al., 2014), the “% DPPH-scavenging activity” value is recorded as 17.2 ± 4.15%.
For `O=C1Nc2ccccc2OC1O` (stereo not shown) [Compound 5, 2-Hydroxy-1,4-benzoxazin-3(4H)-one], the “IC50 (antioxidant activity)” value in data set [1] (ref Harput et al., 2011) is 39.29 µg/mL (≈ 238 µM).
`COc1ccc(C(=O)/C=C2\Nc3ccccc3OC2=O)cc1` [Compound 20b, (Z)-3-[2-(4-methoxy-phenyl)-2-oxo-ethylidene]-3,4-dihydro-benzo [1, 4] oxazin-2-one] showed a melting point of 200 to 203 °C. Besides, the “FRAP assay (C0.5FRAP)” value in data set [2] came out at 686.4 ± 30.8 µM. Besides, the “Cell viability (%)” value in data set [3] is on record as 75.58%. Besides, in the data set “in vitro”, the viability at 72 h, 25 μg/ml turned out to be 92.1%; the viability at 72 h, 50 μg/ml is 88.4%; the viability at 72 h, 100 μg/ml was found to be 80.7%; the viability at 72 h, 250 μg/ml is above 65%. In addition, the DPPH assay IC50 in data set [4] was 6.89 ± 0.07 µg/mL.
In turn, `O=C1Oc2ccc([N+](=O)[O-])cc2N/C1=C\C(=O)c1ccccc1` [Compound 20t, (Z)-6-nitro-3-(2-oxo-2-phenylethylidene)-3,4-dihydro-2H-benzo[b][1,4]oxazin-2-one] had a melting point of 198 to 200 °C. In addition, in data set [2], the “FRAP potency compared with standard reference BHT” value is recorded as “less active than BHT” and the “FRAP assay (C0.5FRAP)” value came to 638.2 ± 32.6 µM. For the same compound, the “Cell viability (%)” value in data set [3] is 67.46%. For the same compound, in the data set “in vitro”, the viability at 72 h, 25 μg/ml turned out to be 89.7%; the viability at 72 h, 50 μg/ml is 80.5%; the viability at 72 h, 100 μg/ml amounted to 74.9%; the viability at 72 h, 250 μg/ml is above 65%. The DPPH assay IC50 in data set [4] was determined as 4.74 ± 0.08 µg/mL.
Turning to `O=C1Oc2cc([N+](=O)[O-])ccc2N/C1=C\C(=O)c1ccccc1` [Compound 20w, (Z)-7-nitro-3-(2-oxo-2-phenylethylidene)-3,4-dihydro-2H-benzo[b][1,4]oxazin-2-one], the melting point fell in the range of 240 to 242 °C. Besides, in data set [2], the “FRAP potency compared with standard reference BHT” value is recorded as “less active than BHT” and the “FRAP assay (C0.5FRAP)” value was found to be 597.4 ± 26.4 µM. The compound further had a DPPH assay IC50 in data set [4] of 12.53 ± 0.09 µg/mL.
Take `O=C1Oc2cc([N+](=O)[O-])ccc2N/C1=C\C(=O)c1ccc(F)cc1` [Compound 20x, (Z)-3-(2-(4-fluorophenyl)-2-oxoethylidene)-7-nitro-3,4-dihydro-2H-benzo[b][1,4]oxazin-2-one]: the melting point fell in the range of 235 to 237 °C. Moreover, in data set [2], the “FRAP assay (C0.5FRAP)” value came to 628.6 ± 32.4 µM. For the same compound, the “Cell viability (%)” value in data set [3] stood at 73.91%. In “in vitro”, this compound gave a viability at 72 h, 25 μg/ml of 95.5%; a viability at 72 h, 50 μg/ml of 86.7%; a viability at 72 h, 100 μg/ml of 81.1%; a viability at 72 h, 250 μg/ml above 65%. This compound also yielded a DPPH assay IC50 in data set [4] of 10.18 ± 0.1 µg/mL.
`O=C1Oc2cc([N+](=O)[O-])ccc2N/C1=C\C(=O)c1ccc(Cl)cc1` [Compound 20y, (Z)-3-(2-(4-chlorophenyl)-2-oxoethylidene)-7-nitro-3,4-dihydro-2H-benzo[b][1,4]oxazin-2-one] came in with a melting point of 205 to 207 °C. Besides, the “FRAP assay (C0.5FRAP)” value in data set [2] was found to be 708.2 ± 27.1 µM. Further, the DPPH assay IC50 in data set [4] is 19.8 ± 0.35 µg/mL.
Compound `O=C1Oc2cc([N+](=O)[O-])ccc2N/C1=C\C(=O)c1ccc(Cl)cc1Cl` [Compound 20z, (Z)-3-(2-(2,4-dichlorophenyl)-2-oxoethylidene)-7-nitro-3,4-dihydro-2H-benzo[b][1,4]oxazin-2-one] registered a melting point of 208 to 210 °C. Also, in data set [2], the “FRAP potency compared with standard reference BHT” value is reported as “more potent than standard reference BHT” and the “FRAP assay (C0.5FRAP)” value came out at 437.6 ± 39.4 µM. For the same compound, the DPPH assay IC50 in data set [4] is 28.8 ± 0.67 µg/mL.
